The target of series [1] is T1, ABCG2 (A549/K1.5 cells) (Homo sapiens, UniProt Q9UNQ0).
T1 construct: Drug resistant A549/K1.5 cells with ABCG2 overexpression were maintained under a continuous drug selection with 1.5 μM C-1305; endogenous in cells; host or cells: A549/K1.5 (C-1305-selected subline of human non-small cell lung cancer A549)
T1 sequence (Q9UNQ0 1-655): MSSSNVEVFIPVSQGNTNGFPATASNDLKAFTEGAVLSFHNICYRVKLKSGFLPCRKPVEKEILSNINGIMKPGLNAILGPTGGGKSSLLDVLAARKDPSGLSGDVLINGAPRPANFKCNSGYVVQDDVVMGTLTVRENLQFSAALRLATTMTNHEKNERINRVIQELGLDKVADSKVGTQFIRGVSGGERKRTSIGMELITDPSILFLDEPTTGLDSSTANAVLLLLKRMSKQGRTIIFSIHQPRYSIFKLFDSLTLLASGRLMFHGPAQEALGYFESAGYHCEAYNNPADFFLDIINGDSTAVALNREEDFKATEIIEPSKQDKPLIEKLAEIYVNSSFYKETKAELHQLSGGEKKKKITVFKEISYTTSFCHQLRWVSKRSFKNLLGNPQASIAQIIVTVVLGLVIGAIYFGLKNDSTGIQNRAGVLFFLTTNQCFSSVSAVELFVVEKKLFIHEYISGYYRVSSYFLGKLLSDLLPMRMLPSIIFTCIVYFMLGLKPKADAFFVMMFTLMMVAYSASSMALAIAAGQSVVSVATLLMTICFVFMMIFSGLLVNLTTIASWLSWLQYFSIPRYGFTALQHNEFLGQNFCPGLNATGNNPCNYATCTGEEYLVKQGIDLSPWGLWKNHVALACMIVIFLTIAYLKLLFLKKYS
Kind of series: Fluorescence microscopy of nuclear accumulation of IAs in A549/K1.5 cells. It is filed as cell-based. The note with it: 10 μM IA, 1 hr. As to the method:
In immunofluorescence microscopy of plasma membrane targeting of ABCG2 and nuclear accumulation of IAs, cells (1×10^4/well) were seeded in 24-well plates (1 ml medium/well) and incubated for 2 days, following which some wells were supplemented with 10 μM IA-containing medium±5 μM FTC and incubated for 1 h at 37° C. Cells were then washed twice with ice-cold PBS containing 0.1% BSA and blocked for 10 min at 4° C. with PBS containing 5% BSA. Cells were then washed once with ice-cold PBS containing 0.1% BSA and incubated for 30 min at 4° C. with a Phycoerythrin-conjugated, affinity-purified 5D3 mouse anti-human ABCG2 monoclonal antibody (1:100; eBioscience). Unspecific fluorescence was determined using cells that were incubated only with a secondary Phycoerythrin (PE)-conjugated goat anti-mouse IgG (1:200; Jackson Immunoresearch Labs, West Grove, Pa.). Cells were then washed twice and subjected to fluorescence microscopy using a DMIRE2 fluorescence microscope equipped with a DC300FX camera (Leica Microsystems, Wetzlar, Germany).
In order to exclude the possibility that differential subcellular accumulation of IA derivatives is the basis of the observed difference in cytotoxicity and cellular fluorescence, A549/K1.5 cells were incubated with 10 μM of selected IA derivatives from both group A and B in the presence or absence of FTC and subjected to fluorescence microscopy.

For series [2], the target named is T1, ABCG2 (A549/K1.5 cells). Briefly: Flow cytometric IA accumulation in A549/K1.5 cells with or without fumitremorgin C. Format: cell-based. As to the method:
In this assay, one ml aliquots of A549/K1.5 or CCRF-CEM cell suspensions (1×10^6 cells/ml) in growth medium containing 20 mM Hepes at pH 7.3 were distributed into 1.5 ml polypropylene Eppendorf test tubes. […] Rabindran, S. […] Alternatively, in time-course experiments, IA derivatives at a constant concentration of 10 μM were added to a CCRF-CEM cell suspension incubated at 37° C., and 1 ml aliquots were removed at variable time points up to 1 hour. Following incubation, test tubes were transferred to ice and centrifuged at 4° C. Cells were then washed twice and re-suspended in ice-cold PBS containing 1% fetal calf serum and kept in the dark at 4° C. until analysis. […] Quantitative evaluation of ABCG2 interaction with various IA derivatives: The extent of ABCG2-mediated resistance was expressed using the Resistance Fold (RF) parameter representing the ratio between the IC50 values of the resistant cells and parental cells.

Structures are written as SMILES.

As for `CCN(CC)CCNc1ccc2ncn3c4ccc(O)cc4c(=O)c1c23` [C-1311], the “intracellular accumulation (fluorescence microscopy)” value in series [1] (absence of FTC) is recorded as “no apparent intracellular accumulation”. The “nuclear accumulation (fluorescence microscopy)” value in series [1] (presence of 5 μM FTC) is on record as “marked restoration of nuclear accumulation”. In addition, the “ABCG2-mediated extrusion / interaction with ABCG2 (in words)” value in series [2] is “extruded by ABCG2-overexpressing lung cancer A549/K1.5 cells”.

The values above are taken from US8470844B2, “Imidazoacridinone derivative compounds and methods for their use” (Technion Research & Development Foundation Limited, priority 2008, dated 2013).
